From patent US7462600B2, “Macrolides” (Pfizer Inc, priority 2004, dated 2008)
Values after ≈ are worked out from the molar mass of the structure shown. Like-named read-outs stand apart in the source and are kept apart here.

Legend:
Type in all cases: cell-based
[1] = test system: Streptococcus pyogenes 1079; assay: MIC, microtiter broth dilution (NCCLS M100-S14), S. pyogenes 1079 (ermB)
Procedure, shortened: (§1)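 Broth dilution was run in microtiter trays and read per NCCLS M100-S14 to give MICs. Compounds came from 40 mg/ml DMSO stock solutions. The strain panel paired macrolide-susceptible parents with macrolide-resistant derivatives.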

[2] = test system: Streptococcus pneumoniae 1016; assay: MIC, microtiter broth dilution (NCCLS M100-S14), S. pneumoniae 1016 (susceptible)
Procedure, shortened: as §1

[3] = test system: Streptococcus pneumoniae 1095; conditions: microtiter broth dilution
Procedure, shortened: as §1

[4] = test system: Streptococcus pneumoniae 1175; conditions: microtiter broth dilution
Procedure, shortened: as §1

[5] = test system: Haemophilus influenzae 1218; assay: MIC, microtiter broth dilution (NCCLS M100-S14), H. influenzae 1218 (susceptible)
Procedure, shortened: as §1

[6] = S. pneumoniae 1016 (susceptible)
[7] = H. influenzae 1218 (susceptible)

Compound | MIC S. pyogenes 1079 ([1]; Streptococcus pyogenes 1079) [µg/mL] | MIC S. pneumo. 1016 ([2]; Streptococcus pneumoniae 1016) [µg/mL] | MIC S. pneumo. 1095 ([3]; Streptococcus pneumoniae 1095) [µg/mL] | MIC S. pneumo. 1175 ([4]; Streptococcus pneumoniae 1175) [µg/mL] | MIC H. influenzae 1218 ([5]; Haemophilus influenzae 1218) [µg/mL] | MIC S. pyogenes 1079 ([1]; S. pyogenes 1079 (ermB)) [µg/mL] | MIC S. pneumo. 1016 [2, 6] [µg/mL] | MIC S. pneumo. 1095 ([3]; S. pneumoniae 1095 (ermB)) [µg/mL] | MIC S. pneumo. 1175 ([4]; S. pneumoniae 1175 (mefA)) [µg/mL] | MIC H. influenzae 1218 [5, 7] [µg/mL]
CCC1OC(=O)C(C)C(=O)C(C)C(OC2OC(C)CC(N(C)C)C2O)C(C)(OC)CC(C)C(=O)C(C)C2N(C3CN(S(=O)(=O)c4ccc(-n5nc(C)cc5C)cc4)C3)C(=O)OC12C (stereo not shown) [Example 3.47, 4-(3,5-dimethyl-1H-pyrazol-1-yl)benzenesulfonyl] | 64 (≈ 70.9 µM) | <0.06 | 0.5 (≈ 0.554 µM) | <0.06 | 8 (≈ 8.87 µM) | – | – | – | – | –
CCC1OC(=O)C(C)C(=O)C(C)C(OC2OC(C)CC(N(C)C)C2O)C(C)(OC)CC(C)C(=O)C(C)C2N(CC3CN(Cc4cccc5nc[nH]c45)C3)C(=O)OC12C (stereo not shown) [4.20] | 16 (≈ 19.7 µM) | <0.06 | 0.12 (≈ 0.148 µM) | 0.25 (≈ 0.308 µM) | 0.25 (≈ 0.308 µM) | – | – | – | – | –
CCC1OC(=O)C(C)C(=O)C(C)C(OC2OC(C)CC(N(C)C)C2O)C(C)(OC)CC(C)C(=O)C(C)C2N(C3CN(S(=O)(=O)c4ccccc4S(C)(=O)=O)C3)C(=O)OC12C (stereo not shown) [Example 3.25, 2-(methylsulfonyl) benzenesulfonyl] | >64.00 | <0.06 | <0.06 | 0.25 (≈ 0.282 µM) | 1 (≈ 1.13 µM) | – | – | – | – | –
CCC1OC(=O)C(C)C(=O)C(C)C(OC2OC(C)CC(N(C)C)C2O)C(C)(OC)CC(C)C(=O)C(C)C2N(C3CN(S(=O)(=O)c4ccc(-c5cnco5)cc4)C3)C(=O)OC12C (stereo not shown) [Example 3.13, 3-descladinosyl-11,12-dideoxy-6-O-methyl-3-oxo-12,11-(oxycarbonyl-(1-(4-(oxazol-5-yl)-benzenesulfonyl)-azetidin-3-yl)-imino)-erythromycin A] | 4 (≈ 4.57 µM) | <0.06 | 0.12 (≈ 0.137 µM) | <0.06 | 0.25 (≈ 0.286 µM) | – | – | – | – | –
CCC1OC(=O)C(C)C(=O)C(C)C(OC2OC(C)CC(N(C)C)C2O)C(C)(OC)CC(C)C(=O)C(C)C2N(C3CN(C(=O)c4ccnc(-c5noc(C)n5)c4)C3)C(=O)OC12C (stereo not shown) [Example 2.18] | >64.00 | <0.06 | >64.00 | 0.5 (≈ 0.585 µM) | 32 (≈ 37.4 µM) | – | – | – | – | –
CCC1OC(=O)C(C)C(=O)C(C)C(OC2OC(C)CC(N(C)C)C2O)C(C)(OC)CC(C)C(=O)C(C)C2N(CC3CCN(Cc4cccc(OC)n4)C3)C(=O)OC12C (stereo not shown) [11.08] | – | – | – | – | – | >64.00 | <0.06 | <0.06 | 0.25 (≈ 0.306 µM) | 0.5 (≈ 0.612 µM)
CCC1OC(=O)C(C)C(=O)C(C)C(OC2OC(C)CC(N(C)C)C2O)C(C)(OC)CC(C)C(=O)C(C)C2N(CC3CCCN3C(=O)c3ccnc4[nH]cnc34)C(=O)OC12C (stereo not shown) [10.50] | – | – | – | – | – | >64.00 | <0.06 | 0.5 (≈ 0.595 µM) | 2 (≈ 2.38 µM) | 8 (≈ 9.51 µM)
CCC1OC(=O)C(C)C(=O)C(C)C(OC2OC(C)CC(N(C)C)C2O)C(C)(OC)CC(C)C(=O)C(C)C2N(C3CN(S(=O)(=O)c4ccc(-n5nccn5)cc4)C3)C(=O)OC12C (stereo not shown) [Example 3.55, 3-descladinosyl-11,12-dideoxy-4-O-methyl-3-oxo-12,11-(oxycarbonyl-(1-(4-(2H-1,2,3-triazol-2-yl)benzenesulfonyl)-azetidin-3-yl)-imino)erythromycin A] | <0.06 | <0.06 | <0.06 | <0.06 | 1 (≈ 1.14 µM) | – | – | – | – | –
CCC1OC(=O)C(C)C(=O)C(C)C(OC2OC(C)CC(N(C)C)C2O)C(C)(OC)CC(C)C(=O)C(C)C2N(CC3CN(C(=O)c4ccc5ncccc5c4)C3)C(=O)OC12C (stereo not shown) [4.33] | 64 (≈ 76.5 µM) | <0.06 | 1 (≈ 1.19 µM) | 0.25 (≈ 0.299 µM) | 1 (≈ 1.19 µM) | – | – | – | – | –
CCC1OC(=O)C(C)C(=O)C(C)C(OC2OC(C)CC(N(C)C)C2O)C(C)(OC)CC(C)C(=O)C(C)C2N(CC3CCCN3Cc3cccc(OC)n3)C(=O)OC12C (stereo not shown) [12.01] | – | – | – | – | – | >64.00 | <0.06 | 2 (≈ 2.45 µM) | 1 (≈ 1.22 µM) | 8 (≈ 9.79 µM)
CCC1OC(=O)C(C)C(=O)C(C)C(OC2OC(C)CC(N(C)C)C2O)C(C)(OC)CC(C)C(=O)C(C)C2N(C3CN(Cc4ccn[nH]4)C3)C(=O)OC12C (stereo not shown) [Example 1.18, (1H-pyrazol-5-yl)methyl] | >64.00 | <0.06 | 1 (≈ 1.34 µM) | 2 (≈ 2.67 µM) | 0.25 (≈ 0.334 µM) | – | – | – | – | –
CCC1OC(=O)C(C)C(=O)C(C)C(OC2OC(C)CC(N(C)C)C2O)C(C)(OC)CC(C)C(=O)C(C)C2N(C3CN(C(C)c4ccnc5cccnc45)C3)C(=O)OC12C (stereo not drawn) [Example 1.37, 3-descladinosyl-11,12-dideoxy-6-O-methyl-3-oxo-12,11-(oxycarbonyl-(1-(1R-(1,5-naphthyridin-4-yl)-ethyl)-azetidin-3-yl)-imino)erythromycin A] | 4 (≈ 4.85 µM) | <0.06 | <0.06 | 0.25 (≈ 0.303 µM) | 1 (≈ 1.21 µM) | – | – | – | – | –
CCC1OC(=O)C(C)C(=O)C(C)C(OC2OC(C)CC(N(C)C)C2O)C(C)(OC)CC(C)C(=O)C(C)C2N(CC3CCN(Cc4cccnc4OC)C3)C(=O)OC12C (stereo not shown) [11.09] | – | – | – | – | – | >64.00 | <0.06 | 4 (≈ 4.9 µM) | 16 (≈ 19.6 µM) | 4 (≈ 4.9 µM)
CCC1OC(=O)C(C)C(=O)C(C)C(OC2OC(C)CC(N(C)C)C2O)C(C)(OC)CC(C)C(=O)C(C)C2N(C3CN(Cc4c(OC)ccc5ncccc45)C3)C(=O)OC12C (stereo not shown) [Example 1.102, 3-descladinosyl-11,12-dideoxy-6-O-methyl-3-oxo-12,11-(oxycarbonyl-(1-(6-methoxyquinoline-5-methyl)-azetidin-3-yl)-imino)-erythromycin A] | 1 (≈ 1.19 µM) | <0.063 | <0.063 | <0.063 | 2 (≈ 2.38 µM) | – | – | – | – | –
